Series [1] deals with insulin dependent type diabetes. The experiment in a line: clinical experiment on human, insulin dependent type diabetes. The note with it: Example 2, 20 units insulin injected. The series is classed as in vivo, humans. As for the experimental part:
(§1) Clinical experiments were also conducted on humans from various provinces of China. Five examples of these clinical experiments are as follows (in each experiment each tablet had 20 mg of non-concentrated powder of Echevaria glauca, Sinocrassula berger, Crassulaceae according to the invention): […]

For the next series, the system named is diabetes models. Kind of series: blood sugar in mice diabetes models made by injecting Tetraoxymidine. It is filed as in vivo, Kumming species mice. The note with it: for Blood sugar value, After Use / Reducer rate (-.increment.X%) / Blood sugar value, Before Use: 11 female mice, 0.2 ml/mouse/day; for Blood sugar value, After Use: 6 days after filling the gastric, 0.5 mg/ml powder; for Reducer rate (-.increment.X%) / sequence of reducing blood sugar: 6 days; for Reducer rate (-.increment.X%): 0.5 mg/ml; for Blood sugar value, Before Use: baseline before 0.5 mg/ml powder. As for the experimental part: Then, an animal experiment was conducted using a powder and concentrated powder from the methods of steps of FIGS. 2 through 5. The experimental method is as follows: Separate 88 Kumming species mice randomly to reference group, DSP group, DAS group, DAS 1, DAS 2, and DAS 3 groups, Damicron group, and Youjiangtang group, 11 female mice in each group. Use the mice to make diabetes models by injecting Tetraoxymidine, and compare experiment group with known DSP, Damicron, Youjiangtang (as the standard sample). The dose for every group: 0.5 mg/ml powder, every day 0.2 ml for every mouse, and every day 0.2 ml sodium chloride solution for the reference group only. Take blood to measure blood sugar value 6 days after filling the gastric.

The test system of series [2] is non-insulin dependent type diabetes. The experiment in a line: clinical experiments on humans, non-insulin dependent type diabetes. The note with it: human, in vivo. As for the experimental part:
as §1

Series [3] has as its system polychromatic erythrocytes. Kind of series: Mouse marrow micronucleus experiment. The series is classed as in vivo, Kumming species mouse. Here is the method:
2 Mouse marrow micronucleus experiment:
Adopting first class qualified Kumming species mouse (provided by animal house of CMA) whose weight are 24~30 g. Making 3 DAS dose groups as 10, 600, 1200 mg/kg plus a positive (cyclophosphamide 30 mg/kg, inject to stomach 2 times) and a negative reference group, 10 mice for each group, half male and half female. Filling the gastric of each mouse two days continuously, and executing the mouse 6 hours after last filling, taking sternum marrow to make thin section as routine, coloring to red. Counting 1000 polychromatic erythrocytes for each mouse, observing polychromatic erythrocytes which contains micronucleus and calculating the rate of micronucleus cell.

The next series relates to sperm. Kind of series: Mouse sperm terata experiment. It is filed as in vivo, Kumming species mouse. Here is the method:
3 Mouse sperm terata experiment:
Adopting first class qualified Kumming species mouse (provided by animal house of CMA) whose weight are 27~36 g. Making 3 DAS dose groups as 10, 600, 1200 mg/kg plus a positive (cyclophosphamide 30 mg/kg, inject to stomach 5 days) and a negative reference group. Filling the gastric of each mouse for each of 5 days continuously, and executing the mouse at 35th day after first filling, taking epididymis of both sides, coloring, observing 1000 sperms for each mouse and calculating the ratio of sperm mutation.

As to insulin, the “high or low blood sugar before DAS” value in series [1] is listed as “became high or low blood sugar occasionally”.

As to `Cc1ccc(S(=O)(=O)NC(=O)NN2CC3CCCC3C2)cc1` (stereo not drawn) [DMC], in the series on diabetes models, the “Blood sugar value, After Use” value is recorded as 110.50 mg %; the “Reducer rate (-.increment.X%)” value amounted to 42.55%; the “Blood sugar value, Before Use” value is given as 292.35 mg %; the “sequence of reducing blood sugar” value was “DAS2 >DAS3 >DAS1>DSP>YJT>DMC”.

As to `COc1ccc(Cl)cc1C(=O)NCCc1ccc(S(=O)(=O)NC(=O)NC2CCCCC2)cc1` [YJT], the “side effect (a sign of low blood sugar)” value in series [2] is reported as “became dizzy”. Moreover, in the series on diabetes models, the “Blood sugar value, After Use” value is listed as 162.28 mg %; the “Reducer rate (-.increment.X%)” value was found to be 45.28%; the “Blood sugar value, Before Use” value is 296.38 mg %; the “sequence of reducing blood sugar” value is reported as “DAS2 >DAS3 >DAS1>DSP>YJT>DMC”.

Consider `O=P1(N(CCCl)CCCl)NCCCO1` (stereo not drawn) [cyclophosphamide], for which the “Ratio of cell micronucleus” value in series [3] (Positive R.G., 30 mg/kg, 2 times) stood at 45.3%. Besides, the “P vs negative group, micronucleus” value in series [3] (positive reference group) is < 0.01. In the series with sperm (Positive R.G., 30 mg/kg, 5 days), this molecule displayed a Variant rate of 61.9%. Besides, the Variant sperm number with sperm (Positive R.G., 30 mg/kg, 5 days, 10000 sperm observed) came out at 619. The “P vs negative group, sperm terata” value in the series with sperm (positive reference group) was < 0.01.

(Values after patent US5911993A, “Homeopathic antidiabetic treatment” (priority 1997, dated 1999).)
